Source: patent publication US20250140406A1, “CLASSIFYING TUMORS AND PREDICTING RESPONSIVENESS” (Oncocyte Corporation, priority 2022, published 2025)
Square brackets hold non-standard residues; d marks the D form. Peptide text beside a SMILES is read from it. * marks the point of attachment. dPhe(4-NHCONH2) = NC(=O)Nc1ccc(C[C@@H](N)C(=O)O)cc1; Dihydroorotyl(S) = O=C1C[C@@H](C(=O)*)NC(=O)N1; dPhe(4-Cl) = N[C@H](Cc1ccc(Cl)cc1)C(=O)O; Phe(4-NH2) = Nc1ccc(C[C@H](N)C(=O)O)cc1; d2Nal = N[C@H](Cc1ccc2ccccc2c1)C(=O)O; Lys(iPr) = CC(C)NCCCC[C@H](N)C(=O)O; d3Pal = N[C@H](Cc1cccnc1)C(=O)O

Columns and labels:
[1] = test system: cancer cell lines, DetermaIO classes; test: Association of PRISM compound sensitivity with DetermaIO (DTIO) cell line classes; type: cell-based
[2] = test system: cancer cell lines classified IM, MSL, M; test: PRISM screen compound sensitivity correlated with IM, MSL and M subtype of cell lines (101 gene signature); type: cell-based; details: for IM Corr test: correlation of PRISM compound sensitivity with IM subtype correlation; for M Corr test: correlation of PRISM compound sensitivity with M subtype correlation; for MSL Corr test: correlation of PRISM compound sensitivity with MSL subtype correlation
[3] = correlation of PRISM compound sensitivity with DTIO; test cell set
[4] = correlation of PRISM compound sensitivity with DTIO; training cell set
[5] = subtype (IM, MSL or M) with which PRISM compound sensitivity is negatively correlated, training cell set, 101 gene signature
[6] = correlation of PRISM compound sensitivity with DTIO (DetermaIO); test cell set (188 cell lines)
[7] = correlation of PRISM compound sensitivity with DTIO (DetermaIO); training cell set (371 cell lines)
[8] = correlation of compound sensitivity with DetermaIO (DTIO), test set
[9] = correlation of compound sensitivity with DetermaIO (DTIO), training set
[10] = subtype (IM, MSL or M) with which compound sensitivity is negatively correlated, training cell set (371 cell lines), 101 gene signature

C[C@H](Nc1ncnc2[nH]cnc12)c1cc2ccc(F)cc2nc1-c1ccccn1 [AMG-319]
DTIO Corr test [1, 3]: −0.04463
DTIO Corr train [1, 4]: −0.0218
IM Corr test ([2]; test cell set): −0.00518
M Corr test ([2]; test cell set): −0.1202
MSL Corr test ([2]; test cell set): −0.07748
TNBCType train [2, 5]: MSL

COc1cccc(Nc2ncnn3ccc(CN4CC[C@@H](N)[C@H](O)C4)c23)c1 [BMS-690514]
DTIO Corr test [1, 6]: 0.01346
DTIO Corr train [1, 7]: −0.1666
DTIO Corr test ([1]; correlation of compound sensitivity with DTIO, test set): 0.01346
DTIO Corr train ([1]; correlation of compound sensitivity with DTIO, training set): −0.1666
DTIO Corr test ([1]; correlation of compound sensitivity with DTIO; test set): 0.01346
DTIO Corr train ([1]; correlation of compound sensitivity with DTIO; training set): −0.1666
IM Corr test ([2]; test cell set (188 cell lines)): −0.1648
M Corr test ([2]; test cell set (188 cell lines)): 0.2486
MSL Corr test ([2]; test cell set (188 cell lines)): 0.3466

CCN(CC)CCCCN1c2ccccc2Oc2ccc(Cl)cc21 [10-DEBC]
DTIO Corr test [1, 6]: −0.02503
DTIO Corr train [1, 7]: −0.1109
IM Corr test ([2]; test cell set (188 cell lines)): −0.00116
M Corr test ([2]; test cell set (188 cell lines)): −0.0627
MSL Corr test ([2]; test cell set (188 cell lines)): −0.03074

COc1cc(-c2ccc(N=Nc3ccc4c(S(=O)(=O)[O-])cc(S(=O)(=O)[O-])c(N)c4c3O)c(OC)c2)ccc1N=Nc1ccc2c(S(=O)(=O)[O-])cc(S(=O)(=O)[O-])c(N)c2c1O.[Na+].[Na+].[Na+].[Na+] [chicago-sky-blue-6b]
DTIO Corr test [1, 6]: −0.07521
DTIO Corr train [1, 7]: −0.1611
IM Corr test ([2]; test cell set (188 cell lines)): −0.1701
M Corr test ([2]; test cell set (188 cell lines)): 0.1599
MSL Corr test ([2]; test cell set (188 cell lines)): 0.184

O=C(Nc1cccc(Nc2ncc(Br)c(NCCc3cnc[nH]3)n2)c1)N1CCCC1 [BX-912]
DTIO Corr test [1, 3]: 0.03523
DTIO Corr train [1, 4]: 0.04083
IM Corr test ([2]; test cell set): 0.1542
M Corr test ([2]; test cell set): −0.2367
MSL Corr test ([2]; test cell set): −0.03732

O=C(O)CCC/C=C\C[C@@H]1CO[C@H](C(F)(F)F)O[C@@H]1c1ccccc1O [ICI-185,282]
DTIO Corr test [1, 3]: −0.02205
DTIO Corr train [1, 4]: −0.09302
IM Corr test ([2]; test cell set): −0.05673
M Corr test ([2]; test cell set): 0.07129
MSL Corr test ([2]; test cell set): 0.1418

O=C(NCCCN1CCCCCC1)C(c1ccccc1)C1CCCCC1 (centres unmarked) [MR-16728]
DTIO Corr test [1, 3]: 0.04353
DTIO Corr train [1, 4]: −0.1606
IM Corr test ([2]; test cell set (188 cell lines)): −0.01298
M Corr test ([2]; test cell set (188 cell lines)): 0.0251
MSL Corr test ([2]; test cell set (188 cell lines)): 0.06487

Cc1occc(=O)c1[O-].Cc1occc(=O)c1[O-].[O]=[V+2] [bis(maltolato)oxo-vanadium(IV)]
DTIO Corr test [1, 3]: 0.09031
DTIO Corr train [1, 4]: 0.1485
DTIO Corr test [1, 8]: 0.09031
DTIO Corr train [1, 9]: 0.1485
IM Corr test ([2]; test cell set (188 cell lines)): 0.04745
M Corr test ([2]; test cell set (188 cell lines)): −0.1743
MSL Corr test ([2]; test cell set (188 cell lines)): −0.04621

O=C(CCn1cnc2c(=O)[nH]cnc21)Nc1ccc(C(=O)O)cc1 [leteprinim]
DTIO Corr test [1, 3]: 0.02507
DTIO Corr train [1, 4]: −0.08293
IM Corr test ([2]; test cell set): 0.08575
M Corr test ([2]; test cell set): −0.1262
MSL Corr test ([2]; test cell set): −0.09795
TNBCType train [2, 5]: MSL

COc1cc(C(=O)c2c(C)oc3c(O)c(OC)ccc23)cc(OC)c1OC [BNC105]
DTIO Corr test [1, 3]: −0.1135
DTIO Corr train [1, 4]: −0.1119
IM Corr test ([2]; test cell set): −0.07446
M Corr test ([2]; test cell set): −0.08585
MSL Corr test ([2]; test cell set): −0.09188
TNBCType train [2, 5]: MSL

O=C(O)Cc1cccnc1C(=O)O [homoquinolinic-acid]
DTIO Corr test [1, 3]: −0.0252
DTIO Corr train [1, 4]: −0.1121
IM Corr test ([2]; test cell set): −0.08778
M Corr test ([2]; test cell set): 0.05663
MSL Corr test ([2]; test cell set): 0.003236

N#Cc1c(Oc2ccc(F)c(NC(=O)Cc3cccc(C(F)(F)F)c3)c2)ccc2nc(NC(=O)C3CC3)sc12 [TAK-632]
DTIO Corr test [1, 3]: 0.2089
DTIO Corr train [1, 4]: 0.08489
DTIO Corr test [1, 8]: 0.2089
DTIO Corr train [1, 9]: 0.08489
DTIO Corr test ([1]; correlation of compound sensitivity with DetermaIO (DTIO); test set): 0.2089
DTIO Corr train ([1]; correlation of compound sensitivity with DetermaIO (DTIO); training set): 0.08489
IM Corr test ([2]; test cell set): 0.3042
M Corr test ([2]; test cell set): −0.2709
MSL Corr test ([2]; test cell set): 0.04709

COC(=O)[C@H](NC(=O)c1cc(-c2ccccc2)nc2ccccc12)c1ccccc1 [SB-218795]
DTIO Corr test [1, 6]: −0.06114
DTIO Corr train [1, 7]: −0.1377
IM Corr test ([2]; test cell set (188 cell lines)): −0.01019
M Corr test ([2]; test cell set (188 cell lines)): 0.01779
MSL Corr test ([2]; test cell set (188 cell lines)): −0.1047

Nc1cccc(-c2cc3c(Oc4cccc(O)c4)ncnc3[nH]2)c1 [TWS-119]
DTIO Corr test ([1]; correlation of PRISM compound sensitivity with DTIO; test cell set (188 cell lines)): −0.03964
DTIO Corr train ([1]; correlation of PRISM compound sensitivity with DTIO; training cell set (371 cell lines)): −0.1606
IM Corr test ([2]; test cell set (188 cell lines)): −0.02666
M Corr test ([2]; test cell set (188 cell lines)): 0.00573
MSL Corr test ([2]; test cell set (188 cell lines)): 0.1335

C[C@H](Nc1ncnc2[nH]cnc12)c1cc2ccc(F)cc2nc1-c1ccccn1 [AMG319]
DTIO Corr test [1, 3]: 0.03283
DTIO Corr train [1, 4]: −0.03859
IM Corr test ([2]; test cell set (188 cell lines)): 0.07986
M Corr test ([2]; test cell set (188 cell lines)): −0.1713
MSL Corr test ([2]; test cell set (188 cell lines)): −0.08814
TNBCType train [2, 10]: MSL

O=C(NCc1ccccc1)c1csc(Nc2ccncn2)n1 [thiazovivin]
DTIO Corr test [1, 3]: 0.04845
DTIO Corr train [1, 4]: 0.03374
IM Corr test ([2]; test cell set (188 cell lines)): 0.0391
M Corr test ([2]; test cell set (188 cell lines)): −0.1082
MSL Corr test ([2]; test cell set (188 cell lines)): −0.2135
TNBCType train [2, 10]: MSL

C[C@@H]1COC(Nc2ccc3ncnc(Nc4ccc(OCc5nccs5)c(Cl)c4)c3c2)=N1 [ARRY-334543]
DTIO Corr test [1, 3]: −0.03109
DTIO Corr train [1, 4]: −0.05992
DTIO Corr test [1, 8]: −0.03109
DTIO Corr train [1, 9]: −0.05992
IM Corr test ([2]; test cell set): −0.1679
M Corr test ([2]; test cell set): 0.2632
MSL Corr test ([2]; test cell set): 0.3622

Clc1ccc(C2(c3ccc(-c4cn[nH]c4)cc3)CCNCC2)cc1 [K12040459]
DTIO Corr test ([1]; association of compound sensitivity with DetermaIO classes; test data set): 0.003574
DTIO Corr train ([1]; association of compound sensitivity with DetermaIO classes; training data set): 0.04812
TNBCType train ([2]; classification of association of compound sensitivity with IM, MSL and M cell line classes, training data set): MSL

CN(CCOP(=O)(O)O)C(=N)N [creatinol-phosphate]
DTIO Corr test [1, 3]: 0.02757
DTIO Corr train [1, 4]: −0.08518
IM Corr test ([2]; test cell set): −0.00785
M Corr test ([2]; test cell set): 0.001052
MSL Corr test ([2]; test cell set): −0.06276

CO/N=C(\C(=O)N[C@@H]1C(=O)N2C(C(=O)OCOC(=O)C(C)(C)C)=C(C)CS[C@H]12)c1csc(N)n1 [cefetamet-pivoxil]
DTIO Corr test [1, 3]: −0.06679
DTIO Corr train [1, 4]: −0.1217
IM Corr test ([2]; test cell set): −0.01246
M Corr test ([2]; test cell set): 0.001642
MSL Corr test ([2]; test cell set): −0.041

CC(=O)N[C@H](Cc1ccc2ccccc2c1)C(=O)N[C@H](Cc1ccc(Cl)cc1)C(=O)N[C@H](Cc1cccnc1)C(=O)N[C@@H](CO)C(=O)N[C@@H](Cc1ccc(NC(=O)[C@@H]2CC(=O)NC(=O)N2)cc1)C(=O)N[C@H](Cc1ccc(NC(N)=O)cc1)C(=O)N[C@@H](CC(C)C)C(=O)N[C@@H](CCCCNC(C)C)C(=O)N1CCC[C@H]1C(=O)N[C@H](C)C(N)=O [degarelix] (Ac-[d2Nal][dPhe(4-Cl)][d3Pal]S[Phe(4-NH2)](Dihydroorotyl(S))[dPhe(4-NHCONH2)]L[Lys(iPr)]P[dA]-NH2)
DTIO Corr test [1, 3]: −0.01776
DTIO Corr train [1, 4]: 0.01996
IM Corr test ([2]; test cell set (188 cell lines)): 0.000275
M Corr test ([2]; test cell set (188 cell lines)): −0.03554
MSL Corr test ([2]; test cell set (188 cell lines)): −0.05421
TNBCType train [2, 10]: MSL

C[N+](C)(C)CC#CCN1CCCC1=O [oxotremorine-m]
DTIO Corr test [1, 3]: −0.1128
DTIO Corr train [1, 4]: −0.0669
IM Corr test ([2]; test cell set (188 cell lines)): −0.08895
M Corr test ([2]; test cell set (188 cell lines)): 0.05992
MSL Corr test ([2]; test cell set (188 cell lines)): 0.09728

C=CCn1c(=O)c2cnc(Nc3ccc(N4CCN(C)CC4)cc3)nc2n1-c1cccc(C(C)(C)O)n1 [MK-1775]
DTIO Corr test [1, 3]: −0.1537
DTIO Corr train [1, 4]: −0.09981
IM Corr test ([2]; test cell set): −0.1878
M Corr test ([2]; test cell set): 0.1655
MSL Corr test ([2]; test cell set): 0.1175
